Experiment: Determination of M1 in rat plasma by HPLC (pharmacokinetics)
Type: in vivo, albino Wistar rats
Protocol: In a separate experiment, M1 was administered orally at 50 mg/kg bodyweight to albino Wistar rats (n = 3) and blood was collected from retro orbital plexus at 0.083, 0.25, 0.5, 1, 2, 4, 8, 12, 16, 24 and 36 h. After collection, blood was centrifuged at 10,000 rpm for 10 min, serum was separated and kept at -20°C for further HPLC determination.
A 1 mg/ml stock solution of M1 was prepared in methanol. 2, 5, 10, 25, 50, 100, 200, 250 and 500 ng/ml working solutions were prepared from the stock solution in methanol. A 100 μl of blank plasma and 100 μl working solutions were taken in separate tubes and vortexed for 30 min. After that, the tubes were centrifuged at 13,000 rpm for 5 min and supernatant was taken into another tube and dried at 40°C overnight. Later, the tubes were reconstituted with 50 μl of methanol, vortexed for 10 min and 20 μl was injected for HPLC analysis. The final concentration of working solutions were 1, 2.5, 5, 12.5, 25, 50, 100, 125 and 250 ng/ml, respectively. Quality control (QC) samples were also prepared at concentrations of 3.0, 25.0 and 200.0 ng/ml, representing low, medium and high QC samples (LQC, MQC and HQC), respectively. Triplicate calibrants and QC samples were prepared at each concentration.
For test samples, 100 μl of test plasma and 100 μl methanol were taken in a test tube and vortexed for 30 min. The other procedure was similar to previously described method.
For the determination of M1 in plasma samples, chromatographic separations were performed in a Waters 2489 HPLC (MA, USA) equipped with Spherowsorb C18, 5μ, 4.6 × 250 mm column. The flow rate was at 1.0 ml/min and the mobile phases consisted of solvent A (formic acid containing water, pH 3.4) and solvent B (methanol). The elution condition was methanol:formic acid (70:30) and the total run time was 8 min. The HPLC was run through Empower software version 2 and absorbance was measured at 230 nm wave length. The detector used for estimation was Waters 2489 UV-Vis detector. The final data was calculated using Winnonlin version 1.5.3 software.

[1] = albino Wistar, rat, single oral administration of 50 mg/kg in rats, n = 3, plasma

COc1cc2c(cc1OC)CC(C(=O)O)NC2 (stereo not shown) [M1, 6,7-dimethoxy-1,2,3,4-tetrahydro-isoquinoline-3-carboxylic acid] showed an AUC(0-t) (albino Wistar, rat, plasma, po, 50 mg/kg, single oral administration of 50 mg/kg in rats, n = 3, plasma, after 36 h) of 2070 ng·h/mL, a Cmax [1] of 178 ± 3.27 ng/mL and a Tmax [1] of 4 h. The half-life [1] was 6.05 h, the MRT (albino Wistar, rat, single oral administration of 50 mg/kg in rats, n = 3, plasma, read-out: MRT (mean retention time)) was 10.5 h and the “oral bioavailability (in words)” value (oral 50 mg/kg, rats, inferred from Cmax) was “good oral bioavailability”. It also gave an AUC0-T (single oral administration of 50 mg/kg in rats, n = 3, plasma, after 36 h, 50 mg/kg) of 2056.05 ± 26.22 ng·h/mL.
